This is an account of results in ChEMBL document CHEMBL3045341, “Triterpene saponins of Quillaja saponaria show strong aphicidal and deterrent activity against the pea aphid Acyrthosiphon pisum” (2012).

In brackets after ≈: the same amount, converted by molar mass.

What is called mortality is the percentage killed. As usually defined, the LC50 is the concentration lethal to half of the exposed cells or organisms.

What all share (format): functional
Common to all, as to conditions: 72 h

Experiment [1] relates to Acyrthosiphon pisum. The experiment is described as follows: Insecticidal activity against Acyrthosiphon pisum (pea aphid) assessed as mortality at 5 mg/ml after 3 days by no-choice assay.
The subject of experiment [2] is Acyrthosiphon pisum. The experiment is described as follows: Insecticidal activity against Acyrthosiphon pisum (pea aphid) after 3 days by no-choice assay.
Experiment [3] deals with Acyrthosiphon pisum. In words: Insecticidal activity against Acyrthosiphon pisum (pea aphid) assessed as mortality at 1 mg/ml after 3 days by no-choice assay.

On to `C[C@@H]1CC[C@@]2(OC1)O[C@H]1[C@@H](O)[C@H]3[C@@H]4CC[C@H]5C[C@@H](O[C@@H]6O[C@H](CO)[C@H](O[C@@H]7O[C@H](CO)C(O)[C@H](O[C@@H]8OC[C@@H](O)[C@H](O)[C@H]8O)[C@H]7O[C@@H]7O[C@H](CO)[C@H](O)[C@H](O[C@@H]8O[C@H](CO)[C@@H](O)[C@H](O)[C@H]8O)[C@H]7O)[C@H](O)[C@H]6O)[C@H](O)C[C@]5(C)[C@H]4CC[C@]3(C)[C@H]1[C@@H]2C` (some centres undefined) [DIGITONIN], for which, in the experiment on Acyrthosiphon pisum [1], the mortality at 5000 µg/mL came out at 14%. In the experiment with Acyrthosiphon pisum [2], this compound yielded an LC50 of 0.45 µg/mL (≈ 0.366 µM). Moreover, the mortality at 1000 µg/mL in the experiment on Acyrthosiphon pisum [3] is 76%.

`C[C@@H]1CC[C@@]2(OC1)O[C@H]1C[C@H]3[C@@H]4CC=C5C[C@@H](O)CC[C@]5(C)[C@H]4CC[C@]3(C)[C@H]1[C@@H]2C` [DISOGENIN]: the mortality at 5000 µg/mL with Acyrthosiphon pisum [1] was 18%.
